# Source: EP2987533B1, “7-substituted piperazin-1-yl fluoroquinolone compounds, their use in the treatment of cancer, pharmaceutical compositions and a method for preparation” (priority 2014, dated 2016)
# Legend:
# Assay in all cases: NCI one-dose SRB growth assay
# Assay type in all cases: cell-based
# [1] = system: SN12C; conditions: Homo sapiens; SN12C (Renal Cancer), 10^-5 M, 48 h; read-out: % Growth Inhibition (GI %)
# Summary of the method: (§1)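 A one-concentration test (10^-5M) is run for 48 h. Protein-bound SRB dye is quantified by absorbance, and growth of treated cells is expressed relative to untreated cells, as a percentage.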
# [2] = system: SNB-75; conditions: Homo sapiens; SNB-75 (CNS Cancer), 10^-5 M, 48 h; read-out: % Growth Inhibition (GI %)
# Summary of the method: as §1
# [3] = system: OVCAR-5; conditions: Homo sapiens; OVCAR-5 (Ovarian Cancer), 10^-5 M, 48 h; read-out: % Growth Inhibition (GI %)
# Summary of the method: as §1
# [4] = system: CCRF-CEM; conditions: Homo sapiens; CCRF-CEM (Leukemia), 10^-5 M, 48 h; read-out: % Growth Inhibition (GI %)
# [5] = system: NCI-H460; conditions: Homo sapiens; NCI-H460 (Non-Small Cell Lung Cancer), 10^-5 M, 48 h; read-out: % Growth Inhibition (GI %)
# [6] = system: BT-549; conditions: Homo sapiens; BT-549 (Breast Cancer), 10^-5 M, 48 h; read-out: % Growth Inhibition (GI %)
# Summary of the method: as §1
# [7] = system: A549/ATCC; conditions: Homo sapiens; A549/ATCC (Non-Small Cell Lung Cancer), 10^-5 M, 48 h; read-out: % Growth Inhibition (GI %)
# Summary of the method: as §1
# [8] = system: A498; conditions: Homo sapiens; A498 (Renal Cancer), 10^-5 M, 48 h; read-out: % Growth Inhibition (GI %)
# Summary of the method: as §1
# [9] = system: SR; conditions: Homo sapiens; SR (Leukemia), 10^-5 M, 48 h; read-out: % Growth Inhibition (GI %)
# Summary of the method: as §1
# [10] = system: SK-MEL-5; conditions: Homo sapiens; SK-MEL-5 (Melanoma), 10^-5 M, 48 h; read-out: % Growth Inhibition (GI %)
# Summary of the method: as §1
# [11] = system: NCI-H522; conditions: Homo sapiens; NCI-H522 (Non-Small Cell Lung Cancer), 10^-5 M, 48 h; read-out: % Growth Inhibition (GI %)
# Summary of the method: as §1
# [12] = system: LOX IMVI; conditions: Homo sapiens; LOX IMVI (Melanoma), 10^-5 M, 48 h; read-out: % Growth Inhibition (GI %)
# Summary of the method: as §1
# [13] = system: 786-0; conditions: Homo sapiens; 786-0 (Renal Cancer), 10^-5 M, 48 h; read-out: % Growth Inhibition (GI %)
# Summary of the method: as §1
# [14] = system: OVCAR-4; conditions: Homo sapiens; OVCAR-4 (Ovarian Cancer), 10^-5 M, 48 h; read-out: % Growth Inhibition (GI %)
# Summary of the method: as §1
# [15] = system: K-562; conditions: Homo sapiens, K562; K-562 (Leukemia), 10^-5 M, 48 h; read-out: % Growth Inhibition (GI %)
# Summary of the method: as §1
# [16] = system: KM12; conditions: Homo sapiens; KM12 (Colon Cancer), 10^-5 M, 48 h; read-out: % Growth Inhibition (GI %)
# Summary of the method: as §1
# [17] = system: NCI-H226; conditions: Homo sapiens; NCI-H226 (Non-Small Cell Lung Cancer), 10^-5 M, 48 h; read-out: % Growth Inhibition (GI %)
# Summary of the method: as §1
# [18] = system: HCT-15; conditions: Homo sapiens; HCT-15 (Colon Cancer), 10^-5 M, 48 h; read-out: % Growth Inhibition (GI %)
# Summary of the method: as §1
# [19] = system: SF-268; conditions: Homo sapiens; SF-268 (CNS Cancer), 10^-5 M, 48 h; read-out: % Growth Inhibition (GI %)
# [20] = system: T-47D; conditions: Homo sapiens, T47D; T-47D (Breast Cancer), 10^-5 M, 48 h; read-out: % Growth Inhibition (GI %)
# Summary of the method: as §1
# [21] = system: SK-OV-3; conditions: Homo sapiens; SK-OV-3 (Ovarian Cancer), 10^-5 M, 48 h; read-out: % Growth Inhibition (GI %)
# Summary of the method: as §1
# [22] = system: MOLT-4; conditions: Homo sapiens; MOLT-4 (Leukemia), 10^-5 M, 48 h; read-out: % Growth Inhibition (GI %)
# Summary of the method: as §1
# [23] = system: HL-60(TB); conditions: Homo sapiens; HL-60(TB) (Leukemia), 10^-5 M, 48 h; read-out: % Growth Inhibition (GI %)
# [24] = system: OVCAR-8; conditions: Homo sapiens; OVCAR-8 (Ovarian Cancer), 10^-5 M, 48 h; read-out: % Growth Inhibition (GI %)
# Summary of the method: as §1
# [25] = system: MDA-MB-468; conditions: Homo sapiens; MDA-MB-468 (Breast Cancer), 10^-5 M, 48 h; read-out: % Growth Inhibition (GI %)
# Summary of the method: as §1
# [26] = system: U251; conditions: Homo sapiens, U-251; U251 (CNS Cancer), 10^-5 M, 48 h; read-out: % Growth Inhibition (GI %)
# Summary of the method: as §1
Structure (SMILES),inhibition at 10 µM [1] [%],inhibition at 10 µM [2] [%],inhibition at 10 µM [3] [%],inhibition at 10 µM [4] [%],inhibition at 10 µM [5] [%],inhibition at 10 µM [6] [%],inhibition at 10 µM [7] [%],inhibition at 10 µM [8] [%],inhibition at 10 µM [9] [%],inhibition at 10 µM [10] [%],inhibition at 10 µM [11] [%],inhibition at 10 µM [12] [%],inhibition at 10 µM [13] [%],inhibition at 10 µM [14] [%],inhibition at 10 µM [15] [%],inhibition at 10 µM [16] [%],inhibition at 10 µM [17] [%],inhibition at 10 µM [18] [%],inhibition at 10 µM [19] [%],inhibition at 10 µM [20] [%],other results
CCn1cc(C(=O)O)c(=O)c2cc(F)c(N3CCN(S(=O)(=O)c4ccc(Cl)cc4Cl)CC3)cc21 [Compound 2a],89.7,25.2,92.1,97.2,89.1,> 100,98,> 100,> 100,> 100,> 100,> 100,81.3,< 10,89.1,90.6,86.9,92.4,75.4,98.3,inhibition at 10 µM [21]: 98.3%; inhibition at 10 µM [22]: 98.2%; inhibition at 10 µM [23]: > 100%; inhibition at 10 µM [24]: 94.2%; inhibition at 10 µM [25]: > 100%; inhibition at 10 µM [26]: 87.9%
Cc1cc(C)c(S(=O)(=O)N2CCN(c3cc4c(cc3F)c(=O)c(C(=O)O)cn4C3CC3)CC2)c(C)c1 [Compound 6b],86.1,63.4,57.8,62.7,60.5,22.7,79.7,37,60.9,45.1,32.7,70.4,24.4,24.4,36.5,39.3,28.2,44.9,43.3,37,inhibition at 10 µM [21]: 18.4%; inhibition at 10 µM [22]: 39%; inhibition at 10 µM [23]: 91.3%; inhibition at 10 µM [24]: 40.5%; inhibition at 10 µM [25]: 34.9%; inhibition at 10 µM [26]: 80.3%
O=C(O)c1cn(C2CC2)c2cc(N3CCN(S(=O)(=O)c4ccc(Cl)cc4Cl)CC3)c(F)cc2c1=O [Compound 2b],13.8,70.2,< 10,19,< 10,13.7,< 10,23.6,17.7,79.8,< 10,38.6,< 10,35.9,< 10,< 10,39.7,16.2,16.4,26.4,inhibition at 10 µM [21]: < 10%; inhibition at 10 µM [22]: 24.1%; inhibition at 10 µM [23]: 13.1%; inhibition at 10 µM [24]: < 10%; inhibition at 10 µM [25]: 65.1%; inhibition at 10 µM [26]: < 10%
